Measurements from PubChem BioAssay AID504740 (National Center for Advancing Translational Sciences (NCATS), 2011).

System: mouse plasma stability, LC-MS/MS, 48 h
Assay: Inhibitors of Bloom's syndrome helicase: Mouse Plasma Stability Profiling
Conditions: at 2 µM; stronger effect = higher value
From the text: Survival of cells and the faithful propagation of the genome depend on elaborate mechanisms of detecting and repairing DNA damage. Treatment of advanced cancer relies on radiation therapy or chemotherapy, which kill cancer cells by causing extensive DNA damage. It is often found, that cancer cells develop resistance to therapy through enhanced activity of DNA repair functions; this has led to an increased interest in developing drugs that interfere with DNA repair, which could sensitize cancer cells to conventional therapy. Bloom syndrome helicase (BLM), is important in resolving abnormal DNA structures formed during replication or homologous recombination. Shutting down the expression of BLM leads to chromosomal instability and higher radiation sensitivity in cultured cells. After the completion of a qHTS campaign, secondary assays, and rounds of medicinal chemistry, a compound was identified to be further characterized through in vitro ADME assays. The stability of the lead compound in mouse plasma is tested because this parameter has a significant impact on many ADME-concerned properties of drugs, such as uptake, distribution, transport, and bioavailability. […]
2uM of compound is incubated in mouse plasma; the reference compound is procaine. Compounds are incubated at 37 deg C for the pre-determined time periods and the when aliquots are removed. Samples are analyzed with LC-MS/MS.

Work on `O=C(Nc1ccc(F)c(C(F)(F)F)c1)Nc1nnc(-c2ccncc2)s1` yielded a percent remaining of 100%.
